Two molecules from patent US20210275624A1, “TREATMENTS FOR IMPROVING OR LESSENING IMPAIRMENT OF MITOCHONDRIAL FUNCTION” (priority 2020, published 2021) can be followed below.

Square brackets hold non-standard residues; d marks the D form. Peptide text beside a SMILES is read from it. Cya = N[C@@H](CS(=O)(=O)O)C(=O)O

For one data set, the system named is HMOX-1. As to the kind of experiment: Real-time RT-PCR (qPCR) of HMOX-1. The class given is cell-based, human. The conditions noted are these: 4 hours. As for the experimental part:
RPE cells in triplicate wells of a 12-well plate were treated with HQ (250 μM) in the presence or absence of RSG (0.4 mM) for 4 hours. Total RNA was isolated using RNeasy Plus Mini Kit according to the manufacturer's specifications and real-time quantitative reverse transcription-polymerase chain reaction (qPCR) was performed as we have described previously. Primer pairs for HMOX-1 and ribosomal protein, large, PO (RPLPO) were as follows (5′ to 3′): HMOX-1, forward: CAG GAG CTG ACC CAT GA; reverse: AGCAACTGTCGCCACCAGAA; RPLPO, forward: GGACATGTTGCTGGCCAATAA; reverse: GGG CCC GAG ACC AGT GTT.
On the technique in general: Real-time PCR tracks product formation cycle by cycle.

Data set [1] has as its system human RPE cells. As to the kind of experiment: Flow cytometry (Annexin V / 7-AAD) cell death and light-microscopy morphology. Type of data set: cell-based. The protocol:
Human donor eyes from a donor were obtained within 24 hrs. after death from the North Carolina Organ Donor and Eye Bank, Inc. (Winston-Salem, N.C., USA) in accordance with the provisions of the Declaration of Helsinki for research involving human tissue. Cells were grown in Eagle's minimal essential medium (MEM; Invitrogen) with 10% fetal bovine serum (FBS; Thermo Scientific) and with 1× penicillin/streptomycin (Thermo Scientific) at 37° C. in a humidified environment containing 5% CO2.
Human donor RPE cells were seeded on collagen-coated 96-well plates, 24-well plates with or without coverslips, 6-well plates (Corning-Costar Incorporated, Corning, N.Y., USA). Except for the Seahorse assay, on day 6 after plating, cells were washed twice with serum-free and phenol red-free MEM (SF-MEM), treated with HQ at a various concentrations in the presence or absence of RSG (0.4 mM) in SF-MEM for various times at 37° C. RSG co-treatment refers to the condition in which cells were treated with RSG in the presence of HQ. Control refers to the condition in which cells were not treated.
RPE cells in triplicate wells of a 6-well plate were treated with HQ (150 μM) in the presence or absence of RSG (0.4 mM) for 12 hours. Cell morphology was recorded by light microscopy, and then cells were detached with 1×TrypLE and centrifuged at 300 g for 5 minutes. Cells were re-suspended with 100 μL 1×Annexin V binding buffer, incubated with 5 μL Annexin V for 10 minutes and then 5 μL 7-AAD was added to the Annexin V mixture and incubated for additional 5 minutes. Cell death was analyzed with flow cytometry.
(A flow cytometer gives signals particle by particle.)

Data set [2] has as its system human RPE cells. As to the kind of experiment: F-actin immunofluorescent staining (phalloidin), aggregate quantification. The class given is cell-based. The settings on record: 6 hours. As for the experimental part:
Human donor RPE cells were seeded on collagen-coated 96-well plates, 24-well plates with or without coverslips, 6-well plates (Corning-Costar Incorporated, Corning, N.Y., USA). Except for the Seahorse assay, on day 6 after plating, cells were washed twice with serum-free and phenol red-free MEM (SF-MEM), treated with HQ at a various concentrations in the presence or absence of RSG (0.4 mM) in SF-MEM for various times at 37° C. RSG co-treatment refers to the condition in which cells were treated with RSG in the presence of HQ. Control refers to the condition in which cells were not treated. RPE cells in triplicate wells of a 24-well plate containing collagen-coated coverslips were treated for 6 hours with HQ (140 μM) in the presence or absence of RSG (0.4 mM) and then fixed in 4% paraformaldehyde for 12 minutes at room temperature (RT). Cells were permeabilized with 0.5% Triton X-100 for 12 minutes and incubated for 1 hour at RT with phalloidin-TRITC in 0.5% bovine serum albumin/0.1% Triton X-100/PBS. The percentage of F-actin aggregates was determined by a masked observer. […] For data analysis, segmented images were converted to eight-bit, binary images and F-actin aggregates were quantified using the particle analyzer function (0-infinity size and 0-1 circularity) in Fiji.

A further data set relates to heme oxygenase-1 (HO-1). As to the kind of experiment: Western blot of HO-1. The class given is cell-based, human. The settings on record: for HO-1 protein level (Western blot): 8 hours. The protocol:
RPE cells in triplicate wells of a 6-well plate were treated with HQ (170 μM) in the presence or absence of RSG (0.4 mM) for 8 hours. Total protein were extracted with RIPA buffer supplemented with protease inhibitors and phosphatase inhibitors, quantified with Bradford protein assay, and subjected to SDS-PAGE and Western blot as we have previously described.^21
(In general: Immunoblotting shows a protein as a band on a membrane.)

The subject of data set [3] is human RPE cells. Briefly: RNA-seq whole transcriptome analysis. The class given is cell-based. The settings on record: 4 hours. As for the experimental part: RPE cells in sextuplicate wells of a 6-well plate were treated for 4 hours with HQ (250 μM or 300 μM) in the presence or absence of RSG (0.4 mM). Total RNA was extracted using an RNeasy Mini Kit and DNA was removed with TURBO DNA-free kit. RNA quality was measured with a Bioanalyzer (Agilent Genomics, Santa Clara, Calif., USA). RNA-seq libraries were prepared from poly-A enriched messenger RNA and sequenced by GENEWIZ (South […], NJ, USA) to generate approximately 20-30 million paired-end, 150 base-pair reads per sample. RNA-seq FASTQ files were quality-tested with FastQC. Reads were aligned with STAR to human genome (GRCh38.p12) and transcriptome ([…]30) references, followed by read-quantification with featureCounts. Principal component analysis (PCA) was used to visualize the high-dimensional RNA-seq dataset using the top 15 thousand genes that had the highest average counts, as normalized by DESeq2's VST method. […] Enriched biological processes were condensed and visualized with […] with similarity metric set to small and GO term size determined by Uniport Homo Sapiens database; biologically relevant processes were selected and labeled. Six enriched KEGG pathways were selected for visualization of gene expression changes, based on their biological relevance and strength of negative correlation between HQ and RSG co-treatment. Empirical RNA-seq Sample Size Analysis (ERSSA) was used to check whether the six biological replicates used in this study were sufficient for differential expression discovery; analysis was performed with log 2FC cutoff of 0.25 and 50 subsamples at each replicate level.

Consider `Oc1ccc(O)cc1` [HQ, hydroquinone, reference compound], for which the “HMOX-1 gene level (qPCR)” value in the data set on HMOX-1 (HQ 250 μM) was “significantly up-regulated”. In addition, the cell morphology entry with human RPE cells [1] (HQ 150 μM) is listed as “caused cells to shrivel/detach”. The “cell death (necrosis, apoptosis)” value with human RPE cells [1] (HQ alone 150 μM, 12 hours) was “induced primarily necrotic cell death and much less apoptotic cell death”. Also, the “number of F-actin aggregates” value in the data set on human RPE cells [2] (HQ 140 μM, vs control) is listed as “significantly increased the number of F-actin aggregates”. Also, the “HO-1 protein level (Western blot)” value in the data set with heme oxygenase-1 (HO-1) (HQ 170 μM) was “significantly up-regulated”. Further, the “number of genes changed (differential expression)” value in the data set on human RPE cells [3] (HQ 250 μM or 300 μM, vs control) is on record as “approximately seven thousand”. For the same molecule, the “HMOX-1 gene expression increase (RNA-seq)” value is recorded as 618% in the data set with human RPE cells [3] (HQ 250 μM) and 420% with human RPE cells [3] (HQ 300 μM).

As for `C[C@@H](O)[C@H](NC(=O)[C@H](CS(=O)(=O)O)NC(=O)CNC(=O)[C@H](CCCNC(=N)N)NC(=O)CN)C(=O)N1CCC[C@H]1C(=O)O` [Risuteganib, Glycyl-L-arginylglycyl-3-sulfo-L-alanyl-L-threonyl-L-proline] (H-GRG[Cya]TP-OH), the “HMOX-1 gene level (qPCR)” value with HMOX-1 (RSG 0.4 mM co-treatment with HQ 250 μM) is reported as “further up-regulated”. In the data set on human RPE cells [1] (RSG 0.4 mM co-treatment with HQ 150 μM), the cell morphology entry was “improved HQ-induced morphological changes”. For the same molecule, the “HQ-induced necrosis and apoptosis (cell death)” value in the data set on human RPE cells [1] (RSG 0.4 mM co-treatment with HQ 150 μM, 12 hours) is “significantly protected cells from HQ-induced necrosis and apoptosis”. Further, the “number of live and dead cells” value in the data set on human RPE cells [1] (RSG alone 0.4 mM, 12 hours, vs control) was “little effect”. In addition, the F-actin aggregates entry in the data set on human RPE cells [2] (RSG 0.4 mM co-treatment with HQ 140 μM) is listed as “significantly inhibited the production of HQ-induced aggregates”. The “HO-1 protein level (Western blot)” value in the data set on heme oxygenase-1 (HO-1) (RSG 0.4 mM co-treatment with HQ 170 μM) was “further up-regulated”. Further, the “cellular stress and HO-1 activation” value with heme oxygenase-1 (HO-1) (RSG alone) was “did not induce observable cellular stress and HO-1 activation”. Besides, the “HMOX-1 gene expression increase (RNA-seq)” value was 241% in the data set with human RPE cells [3] (RSG 0.4 mM co-treatment vs 250 μM HQ alone) and 391% in the data set with human RPE cells [3] (RSG 0.4 mM co-treatment vs 300 μM HQ alone). The “genes regulated (differential expression)” value in the data set on human RPE cells [3] (RSG 0.4 mM co-treatment vs HQ alone) was “regulated thousands of genes”. The “number of differentially expressed (DE) genes” value with human RPE cells [3] (RSG alone 0.4 mM, vs control) came out at 15 genes.
